From patent US11160750B2, “Composition and method for promoting hair growth” (ZivMas LLC, priority 2017, dated 2021) come the findings set out here.

In data set [1] the test system is DHT production. The experiment in a line: ELISA for DHT detection in male HFDP cells. Format: cell-based, human. The note with it: 5 μM testosterone. How it is done:
Dihydrotestosterone (DHT) detection was performed using the Aviva Systems Biology dihydrotestosterone ELISA kit (OKEH02531). The technique is based on a competitive binding enzyme immunoassay. 96 well plate has been pre-coated with an antibiotinylated dihydrotestosterone antibody. 50 μl of HFDP cells control and treated samples were added to the wells along with 50 μl of 1× dihydrotestosterone-Biotin complex. After incubation at 37° C. for 60 min wells were washed 3 times with 1× Wash buffer and was added to each well 100 μl of Avidin-HRP conjugate solution. Another step of incubation at 37° C. for 45 min and washing with 1× wash buffer was performed. 90 μl of TMB subtract was added and to each well followed by incubation in dark, 37° C. for 15-30 minutes. Finally, 50 μl of a stop solution was added and the quantification was determined by measuring the optical density at 450 nm in an enzyme-linked immunosorbent assay (Spark, Tecan) reader.

Data set [2] concerns human follicle derma papilla cells (HFDP). Briefly: Cell proliferation assay in HFDP cells. The class given is cell-based. The settings on record: 0.5 ug/ml. How it is done:
Adherent human cell lines were cultured according to standard mammalian tissue culture protocols and sterile technique. Human follicle derma papilla cells were cultured in human follicle dermal papilla cell growth medium, ready to use, low-serum. Keratinocyte cells (HaCaT) were cultured in high glucose Dulbecco's Modified Eagle Medium with 10% serum. Normal human […] cells such as HFF and BJ were culture in BIOAMF-2 complete medium (Biological industries). All media was supplemented with streptomycin ([…]), penicillin (100 U/ml) and Nystatin (12.5 U/ml). Cells were incubated in 5% CO2 at 37° C. All tissue culture were maintained in 25 cm^2 Nunc™ cell culture treated EasYFlask™ (Thermofisher scientific) and all the media and supplements were obtained from Biological Industries. Treatment were performed by plating cells in a Nunc™ 96 micro well delta surface plates (Thermofisher scientific) in a starting confluence of 0.5×10^4 cells/well. After 24 h of incubation the cells were treated with the ZM-26 composition.
Viability of the cells following treatment was determined using a commercially available MTT assay kit (ABCAM, ab146345) and performed according to manufacturer's instructions. […] The quantification was determined by measuring the optical density at 570 nm in an enzyme-linked immunosorbent assay (Spark, Tecan) reader. […]

Each structure is given as a SMILES string.

Consider `C[C@]12CC[C@H]3[C@@H](CCC4=CC(=O)CC[C@@]43C)[C@@H]1CC[C@@H]2O` [testosterone], for which the DHT levels increase in data set [1] was found to be 4.4 fold.

In the case of `Nc1cc(N2CCCCC2)nc(N)[n+]1[O-]` [minoxidil], the “cell viability after 48 h treatment” value in data set [2] is listed as “caused cell death”.
